# Results from patent US20130316394A1, “VIABILITY STAINING METHOD” (priority 2012, published 2013).
# Legend:
# [1] = system: E. coli; assay: Discrimination of viable and non-viable E. coli in solution with fluorescent probe and two PET quenchers; format: cell-based; details: mixed viable/heat killed E. coli, 0.005 mM Oxazine 170 perchlorate, 0.4 mM p-Sulfonic calix[6]arene, 100 mM Sodium ascorbate in PBS, about 5 min
# Procedure: The viable and heat killed E. coli were preparations were prepared as described in Example 1. The heat killed E. coli suspension was then combined with the viable cell suspension and mixed by vortexing. The resulting cell suspension served as the viable and non-viable E. coli solution.
# A fluorescent probe-quencher stain was prepared as a solution consisting of 0.005 mM Oxazine 170 perchlorate (Sigma-Aldrich, St. Louis, Mo.), 0.4 mM p-Sulfonic calix[6]arene (TCI America, Portland, Oreg.), 100 mM Sodium ascorbate (Sigma-Aldrich, St. Louis, Mo.) in PBS.
# The viable and non-viable E. coli suspension was then diluted 1:1000 into the fluorescent probe-quencher solution to stain the cells. After incubation for approximately 5 minutes, a droplet of the stained cell solution was placed onto a microscope slide and imaged on a fluorescent microscope (Carl Zeiss, LLC, Thornwood, N.Y.).
# FIGS. 20A and 20B show a combined image of the viable and non-viable stained E. coli captured under phase contrast (FIG. 20A) as well as fluorescent conditions (excitation 575-625 nm, emission 660-710 nm) (FIG. 20B). The viable and non-viable cells were indistinguishable in phase contrast but under fluorescent conditions the viable cells were brightly fluorescent whereas the non viable cells were not.
# [2] = system: E. coli; assay: Imaging of viable and heat killed E. coli on a membrane with fluorescent probe and quencher wash; format: cell-based; details: 0.005 mM Oxazine 170 perchlorate stain, 10 mM quencher wash in PBS
# Procedure: Viable and non-viable E. coli cell fractions were prepared by picking a colony cultured on a conventional media plate and then transferring the cells into Phosphate Buffered Saline (PBS). The cells then were suspended by vortexing and then were further diluted in PBS to give a turbidity equivalent to a 1.0 McFarland standard. This stock solution served as the live cell fraction. An aliquot of the live cell fraction was transferred to a glass tube that was placed into a boiling water bath for about 15 minutes to heat kill the E. coli. The tube was removed from the bath and allowed to cool to room temperature. This heat killed suspension served as the dead cell fraction.
# A fluorescent stain solution was prepared as a 0.005 mM solution of Oxazine 170 perchlorate (Sigma-Aldrich, St. Louis, Mo.) in PBS containing a 1:100,000 dilution of 10% w/v 0.8 μm Sky Blue latex fluorescent particles (Spherotech, Lake Forest, Ill.). A separate quencher wash solution was prepared as a 10 mM Sodium ascorbate (Sigma-Aldrich, St. Louis, Mo.) solution in PBS. […]
# The cells then were imaged using a fluorescent microscope (Carl Zeiss, LLC—Thornwood, N.Y.) with an excitation of 575 nm-625 nm and measured emission of 660 nm-710 nm. […]
Compound,permeation of non-viable cell membranes and quenching of fluorescence [1],permeation of the quencher into heat killed cells and effect on fluorescence ([2]; heat killed E. coli on 0.2 μm membrane),permeation of the quencher into viable cells ([2]; live E. coli on 0.2 μm membrane)
"O=C1O[C@H]([C@@H](O)CO)C([O-])=C1O.[Na+] [sodium ascorbate, Sodium Ascorbate]",effective quenching of fluorescence,quenching of the fluorescent signal and a loss of fluorescence,excluded from the viable cells
"O=S(=O)(O)c1cc2c(O)c(c1)Cc1cc(S(=O)(=O)O)cc(c1O)Cc1cc(S(=O)(=O)O)cc(c1O)Cc1cc(S(=O)(=O)O)cc(c1O)Cc1cc(S(=O)(=O)O)cc(c1O)Cc1cc(S(=O)(=O)O)cc(c1O)C2 [p-Sulfonic calix[6]arene, 4- Sulfocalix [6]arene]",effective quenching of fluorescence,–,–
